Test results reported in article PMC5837613 (Toxicological Sciences, 2017).

Experiments:
[1] = tested on: hiPSC CM (iCell Cardiomyocytes); assay: Cellular impedance; type: cell-based, human; settings: 3 µM, 2 h exposure; for change in beat amplitude / change in beat rate: significant = >3*SD of vehicle
FAK = FAK (Homo sapiens, UniProt Q05397); assay: KinomeScan competition binding assay, FAK
RPS6KB1 = RPS6KB1 (Homo sapiens, UniProt P23443); assay: KinomeScan competition binding assay, RPS6KB1
STK35 = STK35 (Homo sapiens, UniProt Q8TDR2); assay: KinomeScan competition binding assay, STK35
Chain of STK35 (Q8TDR2 whole entry): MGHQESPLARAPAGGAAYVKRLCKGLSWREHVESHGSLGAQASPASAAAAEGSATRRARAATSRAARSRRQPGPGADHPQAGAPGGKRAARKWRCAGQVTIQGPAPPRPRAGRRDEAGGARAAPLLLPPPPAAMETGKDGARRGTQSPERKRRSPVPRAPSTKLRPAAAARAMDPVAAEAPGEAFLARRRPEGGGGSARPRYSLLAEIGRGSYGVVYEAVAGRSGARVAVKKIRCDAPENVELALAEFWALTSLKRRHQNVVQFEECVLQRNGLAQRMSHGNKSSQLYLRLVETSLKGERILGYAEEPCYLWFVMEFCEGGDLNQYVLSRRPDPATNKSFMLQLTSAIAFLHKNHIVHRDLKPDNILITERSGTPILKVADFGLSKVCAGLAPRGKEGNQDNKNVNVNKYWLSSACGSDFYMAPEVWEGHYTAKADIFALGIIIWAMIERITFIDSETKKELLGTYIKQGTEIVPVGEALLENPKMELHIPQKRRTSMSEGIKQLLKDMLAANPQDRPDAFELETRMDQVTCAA

[2] = human plasma, Cmax at steady state; ref 1-28 of Supplementary Text; cited from earlier work
[3] = tested on: hiPSC CM (iCell Cardiomyocytes); assay: Cellular ATP levels; type: cell-based, human; settings: 3 µM, 24 h after compound addition

Chain of RPS6KB1 (P23443 whole entry): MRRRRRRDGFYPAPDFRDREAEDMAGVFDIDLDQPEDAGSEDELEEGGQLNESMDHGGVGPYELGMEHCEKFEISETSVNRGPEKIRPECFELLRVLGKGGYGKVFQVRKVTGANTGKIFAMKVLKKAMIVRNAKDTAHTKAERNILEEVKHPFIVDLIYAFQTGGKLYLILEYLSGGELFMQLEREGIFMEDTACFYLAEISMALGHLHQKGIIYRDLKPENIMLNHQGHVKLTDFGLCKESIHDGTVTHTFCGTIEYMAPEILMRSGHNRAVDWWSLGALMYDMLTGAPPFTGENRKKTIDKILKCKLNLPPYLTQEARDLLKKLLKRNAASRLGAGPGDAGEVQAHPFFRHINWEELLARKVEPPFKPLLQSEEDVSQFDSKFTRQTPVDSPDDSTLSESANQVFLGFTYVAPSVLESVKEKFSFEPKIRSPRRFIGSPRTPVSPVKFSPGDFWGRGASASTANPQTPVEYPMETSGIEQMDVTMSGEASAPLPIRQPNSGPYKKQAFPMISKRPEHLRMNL
Chain of FAK (Q05397 whole entry): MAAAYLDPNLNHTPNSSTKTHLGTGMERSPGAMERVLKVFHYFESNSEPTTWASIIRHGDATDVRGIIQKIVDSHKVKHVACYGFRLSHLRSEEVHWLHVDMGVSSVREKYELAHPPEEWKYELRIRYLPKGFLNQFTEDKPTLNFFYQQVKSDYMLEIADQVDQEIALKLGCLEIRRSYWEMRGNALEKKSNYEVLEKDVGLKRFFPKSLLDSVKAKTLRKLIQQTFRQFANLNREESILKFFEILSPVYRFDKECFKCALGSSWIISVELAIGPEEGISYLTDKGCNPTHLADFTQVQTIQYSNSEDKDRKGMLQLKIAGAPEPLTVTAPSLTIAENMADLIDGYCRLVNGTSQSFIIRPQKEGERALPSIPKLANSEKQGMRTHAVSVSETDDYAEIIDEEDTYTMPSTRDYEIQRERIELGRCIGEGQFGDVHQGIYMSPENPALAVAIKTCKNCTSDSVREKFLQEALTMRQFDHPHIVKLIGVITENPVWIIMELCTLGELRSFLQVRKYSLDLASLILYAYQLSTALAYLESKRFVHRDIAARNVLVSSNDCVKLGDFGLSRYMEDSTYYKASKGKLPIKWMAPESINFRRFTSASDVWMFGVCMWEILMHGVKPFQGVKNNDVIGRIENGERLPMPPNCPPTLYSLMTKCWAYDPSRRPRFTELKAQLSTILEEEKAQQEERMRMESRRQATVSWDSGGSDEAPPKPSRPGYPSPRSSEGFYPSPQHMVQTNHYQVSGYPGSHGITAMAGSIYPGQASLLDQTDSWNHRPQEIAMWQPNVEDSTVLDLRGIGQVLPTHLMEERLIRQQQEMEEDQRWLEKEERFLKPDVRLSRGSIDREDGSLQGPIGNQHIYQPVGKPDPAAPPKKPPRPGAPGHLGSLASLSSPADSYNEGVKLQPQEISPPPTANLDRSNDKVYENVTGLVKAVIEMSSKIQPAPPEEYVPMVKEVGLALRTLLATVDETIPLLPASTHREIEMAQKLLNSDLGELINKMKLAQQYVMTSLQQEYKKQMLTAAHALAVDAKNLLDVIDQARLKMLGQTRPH

## Cc1[nH]nc2ccc(-c3cncc(OC[C@@H](N)Cc4ccccc4)c3)cc12 [A-674563]
[1]
  change in beat amplitude: increased amplitude
  change in beat rate: independent of a change in beat rate

## NC(=O)Nc1cc(-c2cccc(F)c2)sc1C(=O)N[C@H]1CCCNC1 [AZD7762]
FAK
  IC50: 0.1 µM
RPS6KB1
  IC50: 3 µM
STK35
  IC50: > 3.2 µM

## Cc1cc2c(F)c(Oc3ncnn4cc(OC[C@@H](C)O)c(C)c34)ccc2[nH]1 [BMS-540215]
[1]
  effect on CM beating (beat rate or amplitude): induced CM beating effects

## C[C@]12O[C@H](C[C@]1(O)CO)n1c3ccccc3c3c4c(c5c6ccccc6n2c5c31)CNC4=O [CEP-701]
[1]
  change in beat amplitude: decreased amplitude
  change in beat rate: increased beat rate

## COc1cc2nccc(Oc3ccc(NC(=O)C4(C(=O)Nc5ccc(F)cc5)CC4)cc3)c2cc1OC [Cabozantinib]
FAK
  IC50: 2.8 µM
RPS6KB1
  IC50: 13.2 µM
STK35
  IC50: 5.7 µM
[2]
  Cmaxss: 2800 nM

## Cc1cc(Nc2cc(N3CCN(C)CC3)nc(/C=C/c3ccccc3)n2)n[nH]1 [ENMD-2076]
STK35
  IC50: > 10 µM
[2]
  Cmaxss: 600 to 1500 nM

## OCCn1cc(-c2ccc3c(c2)CC/C3=N\O)c(-c2ccncc2)n1 [GDC-0879]
[1]
  effect on CM beating (beat rate or amplitude): induced CM beating effects
  change in beat amplitude: independent of a change in amplitude
  change in beat rate: increased beat rate

## CCn1c(-c2nonc2N)nc2c(C#CC(C)(C)O)ncc(OC[C@H]3CCCNC3)c21 [GSK-690693]
[1]
  change in beat amplitude: increased amplitude
  change in beat rate: independent of a change in beat rate

## CO[C@@H]1[C@H](N(C)C(=O)c2ccccc2)C[C@H]2O[C@]1(C)n1c3ccccc3c3c4c(c5c6ccccc6n2c5c31)C(=O)NC4 [PKC-412]
[1]
  change in beat amplitude: decreased amplitude
  change in beat rate: increased beat rate

## Cc1[nH]c(/C=C2\C(=O)Nc3ccc(F)cc32)c(C)c1C(=O)NC[C@H](O)CN1CCOCC1 [SU14813]
[1]
  effect on CM beating (beat rate or amplitude): no effect on CM beating

## Cc1cnc(Nc2ccc(OCCN3CCCC3)cc2)nc1Nc1cccc(S(=O)(=O)NC(C)(C)C)c1 [TG-101348]
[1]
  effect on CM beating (beat rate or amplitude): no effect on CM beating

## CNC(=O)c1cc(COc2nnc(Nc3ccc(Cl)cc3)c3ccoc23)ccn1 [Telatinib]
FAK
  IC50: > 32 µM
RPS6KB1
  IC50: > 32 µM
STK35
  IC50: > 32 µM
[2]
  Cmaxss: 2000 to 3600 nM

## COc1cc2nccc(Oc3ccc(NC(=O)Nc4cc(C)on4)c(Cl)c3)c2cc1OC [Tivozanib]
FAK
  IC50: 3.1 µM
RPS6KB1
  IC50: > 3.2 µM
STK35
  IC50: > 3.2 µM
[2]
  Cmaxss: 200 nM

## CN[C@@H]1C[C@H]2O[C@@](C)([C@@H]1OC)n1c3ccccc3c3c4c(c5c6ccccc6n2c5c31)C(=O)NC4 [staurosporine]
[3]
  cytotoxicity (decreased cellular ATP levels and decreased cell index): induce cell death
